Results: US10150764B2, “Substituted benzene compounds” (Epizyme, Inc., priority 2013, dated 2018)

Columns and labels:
[1] = molecular target: EZH2 Y641F mutant (PRC2 enzyme) (Homo sapiens (Human), UniProt Q15910, Y641F); experiment: PRC2 enzyme assay on peptide substrate, EZH2 Y641F mutant (H3K27me2 peptide, 3H-SAM Flashplate); assay type: biochemical; settings: Y641F mutant PRC2 4 nM
[2] = molecular target: wild-type EZH2 (PRC2 enzyme) (Homo sapiens (Human), UniProt Q15910); experiment: PRC2 enzyme assay on peptide substrate, wild-type EZH2 (H3K27me0 peptide, 3H-SAM Flashplate); assay type: biochemical; settings: wild-type PRC2 4 nM, read-out: WT EZH2 IC50
Sequence of wild-type EZH2 (PRC2 enzyme) (Q15910 whole entry): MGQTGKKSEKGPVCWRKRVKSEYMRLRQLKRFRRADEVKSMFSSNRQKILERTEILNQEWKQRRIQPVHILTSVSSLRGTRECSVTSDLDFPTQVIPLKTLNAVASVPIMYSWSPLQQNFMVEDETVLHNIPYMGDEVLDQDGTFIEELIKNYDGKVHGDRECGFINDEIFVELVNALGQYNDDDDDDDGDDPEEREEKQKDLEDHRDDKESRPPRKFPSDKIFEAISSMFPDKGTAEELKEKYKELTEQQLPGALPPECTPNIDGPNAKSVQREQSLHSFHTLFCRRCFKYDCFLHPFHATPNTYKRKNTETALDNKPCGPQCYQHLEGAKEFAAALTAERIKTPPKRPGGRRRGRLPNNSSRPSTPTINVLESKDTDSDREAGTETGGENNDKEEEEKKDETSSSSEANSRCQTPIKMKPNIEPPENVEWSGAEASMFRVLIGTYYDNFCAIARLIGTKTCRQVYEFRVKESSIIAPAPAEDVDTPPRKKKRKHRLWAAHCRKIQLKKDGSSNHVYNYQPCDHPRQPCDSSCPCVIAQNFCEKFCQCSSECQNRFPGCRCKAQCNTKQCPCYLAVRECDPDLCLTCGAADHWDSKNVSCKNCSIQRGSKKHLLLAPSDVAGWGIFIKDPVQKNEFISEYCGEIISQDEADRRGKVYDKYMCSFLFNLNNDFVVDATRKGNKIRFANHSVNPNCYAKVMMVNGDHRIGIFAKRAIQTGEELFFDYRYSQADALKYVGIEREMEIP
Sequence of wild-type EZH2 (PRC2 enzyme) (O75530 whole entry partner): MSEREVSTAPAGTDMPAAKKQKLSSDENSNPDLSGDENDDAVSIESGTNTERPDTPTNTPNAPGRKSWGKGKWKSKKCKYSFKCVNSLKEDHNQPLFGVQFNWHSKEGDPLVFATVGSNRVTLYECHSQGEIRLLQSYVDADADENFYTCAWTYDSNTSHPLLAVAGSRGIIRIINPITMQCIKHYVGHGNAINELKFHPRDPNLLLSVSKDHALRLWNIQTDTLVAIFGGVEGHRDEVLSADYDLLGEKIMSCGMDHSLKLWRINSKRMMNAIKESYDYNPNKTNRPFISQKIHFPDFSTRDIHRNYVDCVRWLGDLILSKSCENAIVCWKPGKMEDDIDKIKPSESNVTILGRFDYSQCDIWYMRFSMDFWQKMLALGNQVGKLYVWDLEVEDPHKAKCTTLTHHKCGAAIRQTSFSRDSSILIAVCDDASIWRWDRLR
Sequence of wild-type EZH2 (PRC2 enzyme) (Q15022 whole entry partner): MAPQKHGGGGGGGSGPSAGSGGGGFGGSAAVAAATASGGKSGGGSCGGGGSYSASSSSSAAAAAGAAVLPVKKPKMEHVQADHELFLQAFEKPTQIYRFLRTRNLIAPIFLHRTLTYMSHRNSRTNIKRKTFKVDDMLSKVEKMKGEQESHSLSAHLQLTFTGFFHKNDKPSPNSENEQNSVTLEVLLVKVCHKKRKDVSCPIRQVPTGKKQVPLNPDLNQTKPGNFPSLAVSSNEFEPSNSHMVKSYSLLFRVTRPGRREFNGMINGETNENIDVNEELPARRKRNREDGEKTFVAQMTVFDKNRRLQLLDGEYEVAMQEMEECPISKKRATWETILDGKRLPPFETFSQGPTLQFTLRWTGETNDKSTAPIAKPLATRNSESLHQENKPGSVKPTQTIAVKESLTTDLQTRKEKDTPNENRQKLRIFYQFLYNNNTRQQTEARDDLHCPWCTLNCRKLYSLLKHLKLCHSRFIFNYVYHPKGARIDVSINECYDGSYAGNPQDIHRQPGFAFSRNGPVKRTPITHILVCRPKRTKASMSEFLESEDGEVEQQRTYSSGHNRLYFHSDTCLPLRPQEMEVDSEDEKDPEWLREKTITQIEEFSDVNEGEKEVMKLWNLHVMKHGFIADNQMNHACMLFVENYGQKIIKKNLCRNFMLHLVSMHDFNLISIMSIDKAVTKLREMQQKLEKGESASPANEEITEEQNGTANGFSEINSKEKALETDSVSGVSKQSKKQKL
Sequence of wild-type EZH2 (PRC2 enzyme) (Q09028 whole entry partner): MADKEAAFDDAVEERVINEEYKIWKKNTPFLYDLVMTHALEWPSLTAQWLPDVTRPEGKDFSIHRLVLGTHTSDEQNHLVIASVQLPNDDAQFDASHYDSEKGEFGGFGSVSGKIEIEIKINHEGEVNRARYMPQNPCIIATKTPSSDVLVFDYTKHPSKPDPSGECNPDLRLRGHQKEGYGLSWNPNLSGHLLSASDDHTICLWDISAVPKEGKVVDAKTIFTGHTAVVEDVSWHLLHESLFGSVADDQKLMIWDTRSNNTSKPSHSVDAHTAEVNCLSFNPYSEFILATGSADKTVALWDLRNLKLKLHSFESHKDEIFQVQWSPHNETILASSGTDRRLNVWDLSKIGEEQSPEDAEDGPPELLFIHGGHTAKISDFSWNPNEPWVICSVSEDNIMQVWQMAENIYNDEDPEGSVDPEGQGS

[3] = test system: H3K27me3 in WSU-DLCL2 cells; experiment: WSU-DLCL2 methylation assay (H3K27me3 ELISA); assay type: cell-based, human; settings: H3K27me3 normalised to total H3
Description: WSU-DLCL2 Methylation Assay
WSU-DLCL2 suspension cells were purchased from DSMZ (German Collection of Microorganisms and Cell Cultures, Braunschweig, Germany). RPMI/Glutamax Medium, Penicillin-Streptomycin, Heat Inactivated Fetal Bovine Serum, and D-PBS were purchased from Life Technologies, Grand Island, N.Y., USA. Extraction Buffer and Neutralization Buffer (5×) were purchased from Active Motif, Carlsbad, Calif., USA. Rabbit anti-Histone H3 antibody was purchased from Abcam, Cambridge, Mass., USA. Rabbit anti-H3K27me3 and HRP-conjugated anti-rabbit-IgG were purchased from Cell Signaling Technology, Danvers, Mass., USA. TMB “Super Sensitive” substrate was sourced from BioFX Laboratories, Owings Mills, Md., USA. IgG-free Bovine Serum Albumin was purchased from Jackson ImmunoResearch, West Grove, Pa., USA. PBS with Tween (10×PBST) was purchased from KPL, Gaithersburg, Md., USA. Sulfuric Acid was purchased from Ricca Chemical, Arlington, Tex., USA. Immulon ELISA plates were purchased from Thermo, Rochester, N.Y., USA. V-bottom cell culture plates were purchased from Corning Inc., Corning, N.Y., USA. V-bottom polypropylene plates were purchased from Greiner Bio-One, Monroe, N.C., USA.
WSU-DLCL2 suspension cells were maintained in growth medium (RPMI 1640 supplemented with 10% v/v heat inactivated fetal bovine serum and 100 units/mL penicillin-streptomycin) and cultured at 37° C. under 5% CO2. Under assay conditions, cells were incubated in Assay Medium (RPMI 1640 supplemented with 20% v/v heat inactivated fetal bovine serum and 100 units/mL penicillin-streptomycin) at 37° C. under 5% CO2 on a plate shaker.
WSU-DLCL2 cells were seeded in assay medium at a concentration of 50,000 cells per mL to a 96-well V-bottom cell culture plate with 200 μL per well. […] Plates were incubated on a titer-plate shaker at 37° C., 5% CO2 for 96 hours. After four days of incubation, plates were spun at 241×g for five minutes and medium was aspirated gently from each well of cell plate without disturbing cell pellet. Pellet was resuspended in: 200 μL DPBS and plates were spun again at 241×g for five minutes. The supernatant was aspirated and cold (4° C.) Extraction buffer (100 μL) was added per well. Plates were incubated at 4° C. on orbital shaker for two hours. Plates were spun at 3427×g×10 minutes. Supernatant (80 μL per well) was transferred to its respective well in 96 well V-bottom polypropylene plate. Neutralization Buffer 5× (20 μL per well) was added to V-bottom polypropylene plate containing supernatant. V-bottom polypropylene plates containing crude histone preparation (CHP) were incubated on orbital shaker×five minutes. Crude Histone Preparations were added (2 μL per well) to each respective well into duplicate 96 well ELISA plates containing 100 μL Coating Buffer (1×PBS+BSA 0.05% w/v). Plates were sealed and incubated overnight at 4° C. The following day, plates were washed three times with 300 μL per well 1×PBST. […] For H3K27me3 detection, 100 μL of HRP conjugated anti-rabbit IgG antibody diluted to 1:4000 in ELISA diluent was added per well. Plates were incubated at room temperature for 90 minutes. […] TMB substrate 100 μL was added per well. Histone H3 plates were incubated for five minutes at room temperature. H3K27me3 plates were incubated for 10 minutes at room temperature. The reaction was stopped with sulfuric acid 1N (100 μL per well). Absorbance for each plate was read at 450 nm.
Each plate included eight control wells DMSO only treatment (Minimum Inhibition) as well as eight control wells for maximum inhibition (Background wells).
The average of the ratio values for each control type was calculated and used to determine the percent inhibition for each test well in the plate. Test compound was serially diluted three-fold in DMSO for a total of ten test concentrations, beginning at 25 μM.

[4] = Homo sapiens, WSUDLCL2, 96 hours incubation

Sequence of EZH2 Y641F mutant (PRC2 enzyme) (Q15910 whole entry Y641F): as the sequence (Q15910 whole entry) above, with Y641F counted along it
Sequence of EZH2 Y641F mutant (PRC2 enzyme) (O75530 whole entry partner): as the sequence (O75530 whole entry partner) above
Sequence of EZH2 Y641F mutant (PRC2 enzyme) (Q15022 whole entry partner): as the sequence (Q15022 whole entry partner) above
Sequence of EZH2 Y641F mutant (PRC2 enzyme) (Q09028 whole entry partner): as the sequence (Q09028 whole entry partner) above

Row | Compound | IC50 [1] | IC50 [2] | IC50 ([3]; 96 hours incubation) | IC50 [3, 4]
1 | 5-chloro-3-(ethyl((trans)-4-((4-methoxybenzyl)(methyl)amino) cyclohexyl)amino)-2-methyl-N-((1-methyl-3-oxo-5-(piperidin-1-yl)-2,3-dihydro-1H-pyrazol-4-yl)methyl)benzamide [Compound 84] | 1.22 µM | 1.44 µM | 16.7 µM | –
2 | CCN(c1cc(Cl)cc(C(=O)NCc2c(C)[nH]n(C)c2=O)c1C)[C@@H]1COC[C@H]1O (relative stereo) [Compound 41, 5-chloro-N-((2,5-dimethyl-3-oxo-2,3-dihydro-1H-pyrazol-4-yl)methyl)-3-(ethyl((trans)-4-hydroxytetrahydrofuran-3-yl)amino)-2-methylbenzamide] | 26.2 µM | 37.2 µM | – | > 50 µM
3 | CCN(c1cc(-c2ccc(OCCOC)cc2)cc(C(=O)NCc2c(C)[nH][nH]c2=O)c1C)[C@H]1CC[C@H](N(C)C)CC1 [Compound 30, 5-(((trans)-4-(dimethylamino)cyclohexyl)(ethyl)amino)-4′-(2-methoxyethoxy)-4-methyl-N-((5-methyl-3-oxo-2,3-dihydro-1H-pyrazol-4-yl)methyl)-[1,1′-biphenyl]-3-carboxamide] | 0.007 µM | 0.024 µM | – | 29 µM
4 | CCN(c1cc(-c2ccc(CN3CCOCC3)cc2)cc(C(=O)NCc2c(C)[nH]n(C)c2=O)c1C)C1CCOCC1 [Compound 46, N-((2,5-dimethyl-3-oxo-2,3-dihydro-1H-pyrazol-4-yl)methyl)-5-(ethyl(tetrahydro-2H-pyran-4-yl)amino)-4-methyl-4′-(morpholinomethyl)-[1,1′-biphenyl]-3-carboxamide] | – | – | – | > 50 µM
5 | CCN(c1cc(-c2ccc(N3CCNCC3)nc2)cc(C(=O)NCc2c(C)[nH]n(C)c2=O)c1C)C1CCOCC1 [Compound 47, N-((2,5-dimethyl-3-oxo-2,3-dihydro-1H-pyrazol-4-yl)methyl)-3-(ethyl(tetrahydro-2H-pyran-4-yl)amino)-2-methyl-5-(6-(piperazin-1-yl)pyridin-3-yl)benzamide] | – | – | – | > 50 µM
6 | CCN(c1cc(Cl)cc(C(=O)NCc2c(C)n(C)[nH]c2=O)c1C)[C@H]1CC[C@H](N(C)Cc2cccnc2)CC1 [Compound 67, 5-chloro-N-((1,5-dimethyl-3-oxo-2,3-dihydro-1H-pyrazol-4-yl)methyl)-3-(ethyl((trans)-4-(methyl(pyridin-3-ylmethyl)amino)cyclohexyl)amino)-2-methylbenzamide] | 0.06 µM | 0.319 µM | – | –
7 | CCN(c1cc(Cl)cc(C(=O)NCc2c(C)n(C)[nH]c2=O)c1C)[C@H]1CC[C@H](N(C)Cc2cccc(OCCOC)c2)CC1 [Compound 69, 5-chloro-N-((1,5-dimethyl-3-oxo-2,3-dihydro-1H-pyrazol-4-yl)methyl)-3-(ethyl((trans)-4-((3-(2-methoxyethoxy)benzyl)(methyl)amino)cyclohexyl)amino)-2-methylbenzamide] | 0.031 µM | 0.136 µM | – | –
8 | CCn1[nH]c(=O)c(CNC(=O)c2cc(Cl)cc(N(CC)[C@H]3CC[C@H](N(C)Cc4ccc(OC)cc4)CC3)c2C)c1C [Compound 71, 5-chloro-3-(ethyl((trans)-4-((4-methoxybenzyl)-(methyl)-amino)-cyclohexyl)-amino)-N-((1-ethyl-5-methyl-3-oxo-2,3-dihydro-1H-pyrazol-4-yl)methyl)-2-methylbenzamide] | 0.504 µM | 1.92 µM | – | –
9 | CCN(c1cc(Cl)cc(C(=O)NCc2c(OC)nn(C)c2C)c1C)[C@H]1CC[C@H](N(C)C(C)c2cccnc2)CC1 (stereo partly drawn) [Compound 72, 5-chloro-3-(ethyl((trans)-4-(methyl(1-(pyridin-3-yl)ethyl)amino)cyclohexyl)amino)-N-((3-methoxy-1,5-dimethyl-1H-pyrazol-4-yl)methyl)-2-methylbenzamide] | 5.67 µM | > 50 µM | – | –
10 | CCN(c1cc(Cl)cc(C(=O)NCc2c(C)n(C)[nH]c2=O)c1C)[C@H]1CC[C@H](N(C)C(C)c2cccnc2)CC1 (stereo partly drawn) [Compound 73, 5-chloro-N-((1,5-dimethyl-3-oxo-2,3-dihydro-1H-pyrazol-4-yl)methyl)-3-(ethyl((trans)-4-(methyl(1-(pyridin-3-yl)ethyl)amino)cyclohexyl)amino)-2-methylbenzamide] | 0.149 µM | 1.29 µM | – | –
11 | CCN(c1cc(Cl)cc(C(=O)NCc2c(OC)nn(CC)c2C)c1C)C1CCN(CCOC)CC1 [Compound 74] | 7.25 µM | 12.6 µM | – | –
12 | CCN(c1cc(Cl)cc(C(=O)NCc2c(OC)nn(C)c2C)c1C)C1CCN(CCOC)CC1 [Compound 76, 5-chloro-3-(ethyl(1-(2-methoxyethyl)piperidin-4-yl)amino)-N-((3-methoxy-1,5-dimethyl-1H-pyrazol-4-yl)methyl)-2-methylbenzamide] | > 50 µM | > 50 µM | – | –
13 | CCN(c1cc(Cl)cc(C(=O)NCc2c(C)n(C)[nH]c2=O)c1C)C1CCN(CCOC)CC1 [Compound 77, 5-chloro-N-((1,5-dimethyl-3-oxo-2,3-dihydro-1H-pyrazol-4-yl)methyl)-3-(ethyl(1-(2-methoxyethyl)piperidin-4-yl)amino)-2-methylbenzamide] | 4.69 µM | 12.6 µM | – | –
14 | CCN(c1cc(Cl)cc(C(=O)NCc2c(OC)nn(C)c2C)c1C)C1CCN(CCc2cccc(OC)c2)CC1 [Compound 78, 5-chloro-3-(ethyl(1-(3-methoxyphenethyl)piperidin-4-yl)amino)-N-((3-methoxy-1,5-dimethyl-1H-pyrazol-4-yl)methyl)-2-methylbenzamide] | 4.26 µM | 17.6 µM | – | –
15 | CCN(c1cc(Cl)cc(C(=O)NCc2c(C)n(C)[nH]c2=O)c1C)C1CCN(CCc2cccc(OC)c2)CC1 [Compound 79, 5-chloro-N-((1,5-dimethyl-3-oxo-2,3-dihydro-1H-pyrazol-4-yl)methyl)-3-(ethyl(1-(3-methoxyphenethyl)piperidin-4-yl)amino)-2-methylbenzamide] | 0.1 µM | 0.485 µM | – | –
16 | CCN(c1cc(Cl)cc(C(=O)NCc2c(OC)nn(C)c2N2CCCC2)c1C)[C@H]1CC[C@H](N(C)C)CC1 [Compound 80, 5-chloro-3-(((trans)-4-(dimethylamino)cyclohexyl) (ethyl)amino)-N-((3-methoxy-1-methyl-5-(pyrrolidin-1-yl)-1H-pyrazol-4-yl)methyl)-2-methylbenzamide] | 49.4 µM | > 50 µM | – | –
17 | CCN(c1cc(Cl)cc(C(=O)NCc2c(OC)nn(C)c2N2CCOCC2)c1C)[C@H]1CC[C@H](N(C)C)CC1 [Compound 82, 5-chloro-3-(((trans)-4-(dimethylamino)cyclohexyl) (ethyl)amino)-N-((3-methoxy-1-methyl-5-morpholino-1H-pyrazol-4-yl)methyl)-2-methylbenzamide] | 27 µM | 22.9 µM | – | –
18 | CCN(c1cc(Cl)cc(C(=O)NCc2c(OC)nn(C)c2N2CCCCC2)c1C)[C@H]1CC[C@H](N(C)Cc2cccc(OC)c2)CC1 [Compound 83, 5-chloro-3-(ethyl((trans)-4-((3-methoxybenzyl)(methyl)amino)cyclohexyl)amino)-N-((3-methoxy-1-methyl-5-(piperidin-1-yl)-1H-pyrazol-4-yl)methyl)-2-methylbenzamide] | 18.3 µM | 45.8 µM | – | –
19 | CCN(c1cc(Cl)cc(C(=O)NCc2c(C)n(C)n(C)c2=O)c1C)[C@H]1CC[C@H](N(C)C)CC1 [Compound 87, 5-chloro-3-(ethyl((trans)-4-(dimethylamino)cyclohexyl)amino)-2-methyl-N-((1,2,5-trimethyl-3-oxo-2,3-dihydro-1H-pyrazol-4-yl)methyl)benzamide] | 0.253 µM | 0.335 µM | – | –
20 | CCN(c1cc(Cl)cc(C(=O)NCc2c(C(F)(F)F)nn(C)c2OC)c1C)[C@H]1CC[C@H](N(C)C)CC1 [Compound 88, 5-chloro-3-(ethyl((trans)-4-(dimethylamino)cyclohexyl)amino)-N-((5-methoxy-1-methyl-3-(trifluoromethyl)-1H-pyrazol-4-yl)methyl)-2-methylbenzamide] | 46.4 µM | > 50 µM | – | –
21 | CCN(c1cc(Cl)cc(C(=O)NCc2c(C(F)(F)F)[nH]n(C)c2=O)c1C)[C@H]1CC[C@H](N(C)C)CC1 [Compound 89, 5-chloro-3-(ethyl((trans)-4-(dimethylamino)cyclohexyl)amino)-2-methyl-N-((2-methyl-3-oxo-5-(trifluoromethyl)-2,3-dihydro-1H-pyrazol-4-yl)methyl)benzamide] | > 50 µM | > 50 µM | – | –
22 | CCN(c1cc(Cl)cc(C(=O)NCc2c(C(F)(F)F)n(C)n(C)c2=O)c1C)[C@H]1CC[C@H](N(C)C)CC1 [Compound 90, 5-chloro-N-((1,2-dimethyl-3-oxo-5-(trifluoromethyl)-2,3-dihydro-1H-pyrazol-4-yl)methyl)-3-(ethyl((trans)-4-(dimethylamino)cyclohexyl)amino)-2-methylbenzamide] | 0.502 µM | 1.91 µM | – | –
23 | CCN(c1cc(Cl)cc(C(=O)NCc2c(OC)nn(C)c2N2CCCCC2)c1C)[C@H]1CC[C@H](N(C)C)CC1 [Compound 92, 5-chloro-3-(ethyl[(trans)-4-(dimethylamino)cyclohexyl]amino)-N-([3-methoxy-1-methyl-5-(piperidin-1-yl)-1H-pyrazol-4-yl]methyl)-2-methylbenzamide] | > 50 µM | > 50 µM | – | –
24 | CCN(c1cc(Cl)cc(C(=O)NCc2c(N3CCCCC3)nn(C)c2OC)c1C)[C@H]1CC[C@H](N(C)C)CC1 [Compound 94, 5-chloro-3-(((trans)-4-(dimethylamino)cyclohexyl)(ethyl)amino)-N-((5-methoxy-1-methyl-3-(piperidin-1-yl)-1H-pyrazol-4-yl)methyl)-2-methylbenzamide] | > 50 µM | > 50 µM | – | –
25 | CCN(c1cc(Cl)cc(C(=O)NCc2c(OC)nn(C)c2OC)c1C)[C@H]1CC[C@H](N(C)C)CC1 [Compound 95, 5-chloro-N-((3,5-dimethoxy-1-methyl-1H-pyrazol-4-yl)methyl)-3-(((trans)-4-(dimethylamino)cyclohexyl)(ethyl)amino)-2-methylbenzamide] | 17.7 µM | > 50 µM | – | –
